Mass density and activity coefficient data for 28 compounds are collected here from the NIST ThermoML archive (doi:10.1016/j.jct.2010.12.019).

For data set [1] the following is noted: 293.15 K; 101.33 kPa; Liquid; Pycnometric method.
A short description of data set [2]: activity coefficient (dimensionless); of the first substance listed, at infinite dilution; xn = mol fraction of the nth substance listed. To be noted: Liquid, Chromatography, x1 = 0.

“And” between values parts separate entries of the source, which are not always exact repeats. Equal entries are not always repeated. ± gives the expanded uncertainty stated by the source.

In general, mass density refers to mass per unit of volume. In the case of `CCCCn1cc[n+](C)c1.[F][Sb-]([F])([F])([F])([F])[F]` [1-butyl-3-methylimidazolium hexafluoroantimonate], the mass density in data set [1] was 1694.3 ± 3.8 kg/m3.
In the case of `C=CCCCCC` [1-heptene] + CCCCn1cc[n+](C)c1.[F][Sb-]([F])([F])([F])([F])[F], the activity coefficient in data set [2] (313.15 K) was 19.3 and 21.1; in data set [2] (323.15 K), 17.8 and 19.7; in data set [2] (333.15 K) it was 15.9 and 16.6.
Turning to `C#CCCCCC` [1-heptyne] + CCCCn1cc[n+](C)c1.[F][Sb-]([F])([F])([F])([F])[F], the activity coefficient was 5.74 and 6.11 in data set [2] (313.15 K); 5.82 and 6.08 in data set [2] (323.15 K); 5.74 and 6.23 in data set [2] (333.15 K).
With `C#CCCCC` [1-hexyne] + CCCCn1cc[n+](C)c1.[F][Sb-]([F])([F])([F])([F])[F], the activity coefficient in data set [2] (313.15 K) is 4.26 and 4.05; in data set [2] (323.15 K), 4.11 and 4.23; in data set [2] (333.15 K) it was 4.1 and 4.32.
As to `C=CCCCCCCC` [1-nonene] + CCCCn1cc[n+](C)c1.[F][Sb-]([F])([F])([F])([F])[F], the activity coefficient was 32.4 and 32.6 in data set [2] (313.15 K); 30.8 and 33.4 in data set [2] (323.15 K); 30.8 and 32.6 in data set [2] (333.15 K).
Regarding `C#CCCCCCCC` [1-nonyne] + CCCCn1cc[n+](C)c1.[F][Sb-]([F])([F])([F])([F])[F], the activity coefficient in data set [2] (313.15 K) was 11.4 and 11.6; in data set [2] (323.15 K), 10.9 and 11.8; in data set [2] (333.15 K) it was 10.9 and 11.6.
Take `C#CCCCCCC` [1-octyne] + CCCCn1cc[n+](C)c1.[F][Sb-]([F])([F])([F])([F])[F]: the activity coefficient is 8.68 and 9.4 in data set [2] (313.15 K); 8.82 and 9.08 in data set [2] (323.15 K); 8.56 and 8.99 in data set [2] (333.15 K).
Take `C=CCCC` [1-pentene] + CCCCn1cc[n+](C)c1.[F][Sb-]([F])([F])([F])([F])[F]: the activity coefficient is 10.1 and 10.5 in data set [2] (313.15 K); 10.2 ± 0.9 in data set [2] (323.15 K); 9.94 and 10.4 in data set [2] (333.15 K).
With `C#CCCC` [1-pentyne] + CCCCn1cc[n+](C)c1.[F][Sb-]([F])([F])([F])([F])[F], the activity coefficient in data set [2] (313.15 K) was 2.8 and 2.88; in data set [2] (323.15 K) it was 2.89 and 2.9; in data set [2] (333.15 K), 2.93 and 3.03.
`CC(C)=O` [acetone] + CCCCn1cc[n+](C)c1.[F][Sb-]([F])([F])([F])([F])[F]: the activity coefficient in data set [2] (313.15 K) was 0.403 and 0.437; in data set [2] (323.15 K), 0.445 and 0.466; in data set [2] (333.15 K), 0.463 and 0.487.
Turning to `c1ccccc1` [benzene] + CCCCn1cc[n+](C)c1.[F][Sb-]([F])([F])([F])([F])[F], the activity coefficient in data set [2] (313.15 K) was 1.23 and 1.31; in data set [2] (323.15 K), 1.28 and 1.37; in data set [2] (333.15 K), 1.31 and 1.37.
Turning to `CCC(C)=O` [butanone] + CCCCn1cc[n+](C)c1.[F][Sb-]([F])([F])([F])([F])[F], the activity coefficient in data set [2] (313.15 K) was 0.648 and 0.632; in data set [2] (323.15 K) it was 0.681 ± 0.058; in data set [2] (333.15 K), 0.702 and 0.718.
For the compound `C1CCCCCC1` [cycloheptane] + CCCCn1cc[n+](C)c1.[F][Sb-]([F])([F])([F])([F])[F], the activity coefficient in data set [2] (313.15 K) was 20 and 18.7; in data set [2] (323.15 K), 15.7 and 21.1; in data set [2] (333.15 K), 17.3 and 18.2.
As for `C1CCCCC1` [cyclohexane] + CCCCn1cc[n+](C)c1.[F][Sb-]([F])([F])([F])([F])[F], the activity coefficient is 16.4 and 15.4 in data set [2] (313.15 K); 11 and 18.6 in data set [2] (323.15 K); 14.1 and 14.6 in data set [2] (333.15 K).
For `C1CCCCCCC1` [cyclooctane] + CCCCn1cc[n+](C)c1.[F][Sb-]([F])([F])([F])([F])[F], the activity coefficient in data set [2] (313.15 K) is 22.9 and 23.4; in data set [2] (323.15 K), 17.2 and 27.1; in data set [2] (333.15 K), 20.4 and 21.5.
Consider `C1CCCC1` [cyclopentane] + CCCCn1cc[n+](C)c1.[F][Sb-]([F])([F])([F])([F])[F], for which the activity coefficient is 11.4 and 11.9 in data set [2] (313.15 K); 10.6 and 10.9 in data set [2] (323.15 K); 10.2 and 10.7 in data set [2] (333.15 K).
Regarding `CCO` [ethanol] + CCCCn1cc[n+](C)c1.[F][Sb-]([F])([F])([F])([F])[F], the activity coefficient in data set [2] (313.15 K) is 2.33 and 2.46; in data set [2] (323.15 K), 2.14 and 2.3; in data set [2] (333.15 K) it was 2.01 and 2.07.
`CCc1ccccc1` [ethylbenzene] + CCCCn1cc[n+](C)c1.[F][Sb-]([F])([F])([F])([F])[F]: the activity coefficient in data set [2] (313.15 K) is 3.11 and 2.92; in data set [2] (323.15 K) it was 3.09 and 3.23; in data set [2] (333.15 K), 3.18 and 3.45.
Regarding `CCCCCCC` [heptane] + CCCCn1cc[n+](C)c1.[F][Sb-]([F])([F])([F])([F])[F], the activity coefficient in data set [2] (313.15 K) is 37.1 and 38.7; in data set [2] (323.15 K), 34.2 and 35.8; in data set [2] (333.15 K), 31.4 and 34.4.
Regarding `C=CCCCC` [hex-1-ene] + CCCCn1cc[n+](C)c1.[F][Sb-]([F])([F])([F])([F])[F], the activity coefficient was 14 and 13.1 in data set [2] (313.15 K); 13 and 14.1 in data set [2] (323.15 K); 13.4 and 13.8 in data set [2] (333.15 K).
Turning to `CCCCCC` [hexane] + CCCCn1cc[n+](C)c1.[F][Sb-]([F])([F])([F])([F])[F], the activity coefficient in data set [2] (313.15 K) was 28.6 and 27.9; in data set [2] (323.15 K), 26.4 and 28.2; in data set [2] (333.15 K) it was 26 and 26.6.
In the case of `CO` [methanol] + CCCCn1cc[n+](C)c1.[F][Sb-]([F])([F])([F])([F])[F], the activity coefficient in data set [2] (313.15 K) was 1.7 and 1.88; in data set [2] (323.15 K) it was 1.64 and 1.71; in data set [2] (333.15 K) it was 1.57 ± 0.13.
Turning to `CCCCCCCCC` [nonane] + CCCCn1cc[n+](C)c1.[F][Sb-]([F])([F])([F])([F])[F], the activity coefficient is 47.7 and 48.8 in data set [2] (313.15 K); 44.9 and 49.1 in data set [2] (323.15 K); 44.1 and 47.3 in data set [2] (333.15 K).
With `C=CCCCCCC` [oct-1-ene] + CCCCn1cc[n+](C)c1.[F][Sb-]([F])([F])([F])([F])[F], the activity coefficient is 25.7 ± 2.2 in data set [2] (313.15 K); 24.6 and 25.7 in data set [2] (323.15 K); 24.2 and 24.9 in data set [2] (333.15 K).
As to `CCCCCCCC` [octane] + CCCCn1cc[n+](C)c1.[F][Sb-]([F])([F])([F])([F])[F], the activity coefficient in data set [2] (313.15 K) was 40.4 and 44.6; in data set [2] (323.15 K), 39.5 and 42.7; in data set [2] (333.15 K) it was 39.2 and 42.7.
With `CCCCC` [pentane] + CCCCn1cc[n+](C)c1.[F][Sb-]([F])([F])([F])([F])[F], the activity coefficient in data set [2] (313.15 K) is 19.6 and 21.5; in data set [2] (323.15 K), 17.6 and 18.3; in data set [2] (333.15 K), 17 and 18.1.
With `CCCO` [propan-1-ol] + CCCCn1cc[n+](C)c1.[F][Sb-]([F])([F])([F])([F])[F], the activity coefficient in data set [2] (313.15 K) is 3.13 and 3.22; in data set [2] (323.15 K), 2.82 and 2.96; in data set [2] (333.15 K), 2.51 and 2.75.
Take `Cc1ccccc1` [toluene] + CCCCn1cc[n+](C)c1.[F][Sb-]([F])([F])([F])([F])[F]: the activity coefficient in data set [2] (313.15 K) was 1.87 and 1.78; in data set [2] (323.15 K), 1.88 and 1.94; in data set [2] (333.15 K) it was 1.92 and 1.97.
